Measurements: publication PMC5241706, “Biochemical and Structural Characterization of Selective Allosteric Inhibitors of the Plasmodium falciparum Drug Target, Prolyl-tRNA-synthetase” (ACS Infectious Diseases, 2016)
“And” between values parts separate entries of the source, which are not always exact repeats. Equal entries are not always repeated.

Key:
HsHEPG2 = test: mammalian cell line selectivity; assay type: cell-based; conditions: Homo sapiens; data not shown
Source text: (§1) […]. In addition to its activity and selectivity, it has good physicochemical and DMPK properties. […].

[1] = test system: isolated 3D7 trophozoites (pHi); test: pH assay, BCECF-loaded isolated trophozoites; conditions: TCMDC-124506 5 μM; KAE609 50 nM
[2] = kinetic aqueous solubility, laser nephelometry; assay type: physicochemical; conditions: MilliQ water with 1.0% DMSO, kinetic from dmso stock
Procedure: (§2) 485nm (Plouffe et al., 2008).
(§3) described (Vedadi et al., 2006).
(§4) Orange Dye (Life Technologies S-6650).
(§5) In vitro Cell Assay Data Analysis
(§6) (Patterson et al., 2013). […] An
(§7) Triplicate aliquots were transferred to a flat
(§8) Intrinsic Clearance (CLi) experiments
(§9) Test compound (0.5 µM) was
(§10) phosphate buffer, pH 7.4).
(§11) The rate of intrinsic clearance (CLi)
(§12) 52.5mg protein per g liver.
(§13) Ion homeostasis in the malaria parasite

PfProRS [3] = molecular target: T1, PfProRS (Plasmodium falciparum, UniProt Q8I5R7); test: ATP consumption assay with proline or ATP varied (competition); assay type: biochemical
T1 construct: B2, AA7–746 (minus 6 amino acids, or 99% of the ORF); made in house; host or cells: E. coli BL21(DE3)R3 Rosetta Oxford

[4] = intrinsic clearance in liver microsomes; assay type: in vitro ADME
Procedure: as §2, §3, §4, §5, §6, §7, §8, §9, §10, §11, §12, §13

experimental CHI-logD = assay type: physicochemical; conditions: HPLC retention (chromatographic hydrophobicity index, CHI)
Source text: as §1

PfProRS [5] = molecular target: T1, PfProRS; test: luciferase ATP depletion assay, HTS format; assay type: biochemical
PfProRS [6] = molecular target: T1, PfProRS; test: biochemical; assay type: biochemical; conditions: read-out: Pf ProRS IC50
HsProRS = molecular target: T2, HsProRS (Homo sapiens, UniProt P07814); test: luciferase ATP depletion assay, counter-screen; assay type: biochemical
T2 construct: made in house
T2 sequence (P07814 1007-1512 limits assumed): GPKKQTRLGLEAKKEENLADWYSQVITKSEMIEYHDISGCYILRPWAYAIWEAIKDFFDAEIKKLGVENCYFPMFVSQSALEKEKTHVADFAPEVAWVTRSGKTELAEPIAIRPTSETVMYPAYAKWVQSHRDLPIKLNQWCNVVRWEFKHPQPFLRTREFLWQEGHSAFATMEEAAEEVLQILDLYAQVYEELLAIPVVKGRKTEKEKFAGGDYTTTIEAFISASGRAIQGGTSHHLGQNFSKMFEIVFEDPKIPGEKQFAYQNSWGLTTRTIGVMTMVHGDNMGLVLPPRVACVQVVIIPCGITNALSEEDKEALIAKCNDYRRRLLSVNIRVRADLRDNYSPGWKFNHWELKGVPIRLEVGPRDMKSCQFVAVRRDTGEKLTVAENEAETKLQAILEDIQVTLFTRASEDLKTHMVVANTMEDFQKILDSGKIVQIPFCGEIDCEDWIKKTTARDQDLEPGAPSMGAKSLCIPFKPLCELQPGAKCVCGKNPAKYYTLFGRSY

[7] = test system: Plasmodium falciparum strain 3D7; test: Plasmodium falciparum growth inhibition, SYBR green fluorescence; assay type: cell-based; conditions: 3D7, growth inhibition, read-out: Pf (3D7) EC50
[8] = read-out: Percentage inhibition Pf ProRS

T1 sequence (Q8I5R7 7-746): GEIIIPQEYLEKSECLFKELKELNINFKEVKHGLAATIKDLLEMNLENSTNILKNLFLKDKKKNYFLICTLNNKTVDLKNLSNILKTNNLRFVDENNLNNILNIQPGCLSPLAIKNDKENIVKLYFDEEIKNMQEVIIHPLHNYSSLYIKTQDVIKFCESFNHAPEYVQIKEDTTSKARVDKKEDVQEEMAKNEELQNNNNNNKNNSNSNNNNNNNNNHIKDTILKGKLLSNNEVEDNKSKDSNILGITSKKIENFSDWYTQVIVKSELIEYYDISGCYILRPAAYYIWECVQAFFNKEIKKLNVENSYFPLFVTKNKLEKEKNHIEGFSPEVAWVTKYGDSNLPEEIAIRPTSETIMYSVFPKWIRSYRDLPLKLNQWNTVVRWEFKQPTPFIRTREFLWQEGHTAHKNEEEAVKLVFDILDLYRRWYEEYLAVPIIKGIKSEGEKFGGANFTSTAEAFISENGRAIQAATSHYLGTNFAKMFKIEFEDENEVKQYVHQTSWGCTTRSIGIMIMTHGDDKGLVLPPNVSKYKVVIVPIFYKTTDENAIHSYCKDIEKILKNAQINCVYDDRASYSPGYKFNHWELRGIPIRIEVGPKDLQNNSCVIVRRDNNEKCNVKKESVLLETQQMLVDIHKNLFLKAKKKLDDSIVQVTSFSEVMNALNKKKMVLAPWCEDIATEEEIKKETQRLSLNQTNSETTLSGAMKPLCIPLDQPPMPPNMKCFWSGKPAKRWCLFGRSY

Cn1nc(C(F)(F)F)c(-c2ccc(F)cc2)c1NC(=O)Nc1ccc(F)cc1 [TCMDC-124506]
EC50 (HsHEPG2): > 50 µM | effect on acidification after concanamycin A (100 nM) [1]: a reduction in the degree of acidification | effect on parasite cytosolic pH (pHi) [1]: caused an increase in pHi | solubility kinetic [2]: > 250 µM | mode of inhibition (PfProRS [3]): competitive allosteric inhibitor | IC50 (PfProRS [3]; IC50 of TCMDC-124506 as a function of proline, Pro=30 M): 88 µM | IC50 (PfProRS [3]; IC50 of TCMDC-124506 as a function of proline, Pro=60): 110 µM | IC50 (PfProRS [3]; IC50 of TCMDC-124506 as a function of proline, Pro=120): 128 µM | IC50 (PfProRS [3]; IC50 of TCMDC-124506 as a function of proline, Pro=240): 151 µM | Ki (PfProRS [3]; Ki (Cheng-Prusoff, competition with ATP), intercept of IC50 vs [ATP]): 51 ± 1.6 µM | Ki (PfProRS [3]; Ki (Cheng-Prusoff, competition with proline), intercept of IC50 vs [Proline]): 80 ± 4.9 µM | IC50 (PfProRS [3]; TCMDC-124506 IC50 as a function of ATP, ATP=3 M): 74.4 µM | IC50 (PfProRS [3]; TCMDC-124506 IC50 as a function of ATP, ATP=6): 103 µM | IC50 (PfProRS [3]; TCMDC-124506 IC50 as a function of ATP, ATP=12): 145 µM | mouse microsomal clearance (Cli) [4]: 1.6 mL/min/g | chromatographic logD (experimental CHI-logD): 2.9 | IC50 (PfProRS [5]; 75 nM ProRS, 60 μM proline, 6 μM ATP, 400 μg/mL yeast tRNA, 2 h 37 °C, read-out: PfProRS IC50): 74 µM and 73 µM | inhibition at 2.5 µM (PfProRS [5]; [8]): -0.36% | inhibition at 4.9 µM (PfProRS [5]; [8]): -2.4% | inhibition at 9.8 µM (PfProRS [5]; [8]): 3.73% | inhibition at 19.5 µM (PfProRS [5]; [8]): 10.8% | inhibition at 39 µM (PfProRS [5]; [8]): 30.9% | inhibition at 78 µM (PfProRS [5]; [8]): 55.8% | inhibition at 156 µM (PfProRS [5]; [8]): 79.5% | inhibition at 313 µM (PfProRS [5]; [8]): 80.4% | inhibition at 625 µM (PfProRS [5]; [8]): 96.2% | inhibition at 1250 µM (PfProRS [5]; [8]): 97% | IC50 (PfProRS [6]): 5 µM | IC50 (HsProRS): > 700 µM | inhibition at 2.5 µM (HsProRS; at 2.5 μM, read-out: Percentage inhibition Hs ProRS): 0.3% | inhibition at 4.9 µM (HsProRS; at 4.9 μM, read-out: Percentage inhibition Hs ProRS): 0.28% | inhibition at 9.8 µM (HsProRS; at 9.8 μM, read-out: Percentage inhibition Hs ProRS): 0.01% | inhibition at 19.5 µM (HsProRS; at 19.5 μM, read-out: Percentage inhibition Hs ProRS): -0.08% | inhibition at 39 µM (HsProRS; at 39 μM, read-out: Percentage inhibition Hs ProRS): 0.26% | inhibition at 78 µM (HsProRS; at 78 μM, read-out: Percentage inhibition Hs ProRS): 0.84% | inhibition at 156 µM (HsProRS; at 156 μM, read-out: Percentage inhibition Hs ProRS): 0.82% | inhibition at 313 µM (HsProRS; at 313 μM, read-out: Percentage inhibition Hs ProRS): 0.26% | inhibition at 625 µM (HsProRS; at 625 μM, read-out: Percentage inhibition Hs ProRS): 0.12% | inhibition at 1250 µM (HsProRS; at 1250 μM, read-out: Percentage inhibition Hs ProRS): 0.04% | inhibitory activity for HsProRS (HsProRS; up to the limit of solubility (>1 mM)): < 40% | EC50 [7]: 0.6 µM
